According to patent US4921847A, “Trihalo(amine)gold(III) anti-tumor complexes” (Engelhard Corporation, priority 1989, dated 1990):
“And” between values parts separate entries of the source, which are not always exact repeats. Equal values may be shown once.

Legend:
[1] = test system: S180 ascites; test: Anti-tumor evaluation against S180 ascites in mice (% increase in life span, survivors); format: in vivo, female CFW Swiss mice; details: for Survivors: day of evaluation; for Anti-tumor activity (in words): 50% ILS criterion
Description: The above prepared compounds were evaluated against S180 ascites in female CFW Swiss mice. The mice were weighed (average weight: 20 g), placed into cages (six mice to a cage) and on day zero the mice were inoculated with 0.2 ml of a freshly prepared saline suspension (0.15 M NaCl) containing 1×10^7 tumor cells/ml or a total of 2×10^6 cells. This inoculum was freshly prepared using "transfer" mice which had been injected with tumor cells the previous week; it was obtained via the following steps: (1) the removal of cells from the peritoneal cavity of the sacrificed transfer mouse, (2) alternate centrifugation and washing operations (2-3 times with cold saline) to remove blood and other components, and (3) dilution of the volume of the packed cell with saline (1:3). A final centrifugation was carried out at 1000 RPM over a two minute period. A cell count was made on a 2,000-fold dilution of this 1:3 suspension by means of a Coulter Counter. A final dilution to 1×10^7 cells/ml was made based on the average count.
On day 1, solutions of the test compounds were prepared and each mouse in a set of six were injected with the same test compound at the same dosage. The doses were based on the average weight of the animals (cage weight). Also, beginning on day 1 two controls were employed containing six mice per control:
(1) Normal Control: This consisted solely of the carrier or diluent used in combination with the test compound; and
(2) Positive Control: This consisted solely of the known anti-tumor agent cis-[Pt(NH3)2 Cl2 ] (Cisplatin) in saline (8 mg/kg) to test the response of the biological system.
The effectiveness of a test compound was measured in terms of the % increase in life span (%ILS) of the test mice relative to the Normal Control (Calculated from the day of tumor inoculation, i.e., day zero). To standardize the test data and permit intercomparisons, the day of evaluation was arbitrarily taken as that day corresponding to twice the mean life span (or average day of death) of the control. This established a practical upper limit of 100% on the %ILS attainable. For calculation purposes the survivors on the day of evaluation were considered to have died on that day. The %ILS was calculated as follows: [formula] ILS values in excess of 50% were interpreted as being indicative of anti-tumor activity, whereas, values in excess of 75% indicated excellent activity.
The products of Examples 1, 4, 10 and 11 were administered in a freshly prepared 1% sodium bicarbonate solution; the remaining test compounds were administered as slurries in 0.5% "Klucel" (hydroxypropylcellulose).

[2] = test system: Sarcoma 180 tumors; test: Therapeutic index (LD50/ED90), implanted Sarcoma 180 tumors; format: in vivo, Swiss white mice; design: ED90: unit not given here; details: for Therapeutic Index: LD50/ED90; for Maximum % ILS (Dosage): S 180 ascites, 40 mg/kg; for ED90: dose giving 50% increase in life span for 90% of the animals, determined graphically
[3] = Solubility; format: physicochemical
[4] = test system: Sarcoma 180 tumors; details: comparison value; cited from earlier work

| Compound | % ILS ([1]; S 180 ascites, 5 mg/kg) [%] | Survivors ([1]; S 180 ascites, 5 mg/kg) | % ILS ([1]; S 180 ascites, 10 mg/kg) [%] | Survivors ([1]; S 180 ascites, 10 mg/kg) | % ILS ([1]; S 180 ascites, 20 mg/kg) [%] | Survivors ([1]; S 180 ascites, 20 mg/kg) | % ILS ([1]; S 180 ascites, 40 mg/kg) [%] | Survivors ([1]; S 180 ascites, 40 mg/kg) | % ILS ([1]; S 180 ascites, 80 mg/kg) [%] | Survivors ([1]; S 180 ascites, 80 mg/kg) | % ILS ([1]; S 180 ascites, 160 mg/kg) [%] | Survivors ([1]; S 180 ascites, 160 mg/kg) | Anti-tumor activity (in words) ([1]; S 180 ascites) | Therapeutic Index [2] | Maximum % ILS (Dosage) [2] [%] | ED90 [2] | % ILS ([1]; S 180 ascites, 320 mg/kg) [%] | Survivors ([1]; S 180 ascites, 320 mg/kg) | solubility in 1% sodium bicarbonate solution [3] [mg/mL] | further results |
| --- | --- | --- | --- | --- | --- | --- | --- | --- | --- | --- | --- | --- | --- | --- | --- | --- | --- | --- | --- | --- |
| Cn1cc[n+]([Au-]([Cl])([Cl])[Cl])c1 [Example 2, Trichloro(N-Methylimidazole)Gold(III)] | 2 | 0 of 6 | 14 | 0 of 6 | 33 | 1 of 6 | 91 | 4 of 6 | 53 | 1 of 6 | -93 | 0 of 6 | decidedly active | 2.8 | 91 | 31 | – | – | – | peak ILS values ([1]; S 180 ascites): > 90%; active dose range ([1]; S 180 ascites, decidedly active within the range): 20 to 40 mg/kg |
| [Cl][Au-]([Cl])([Cl])[n+]1cc[nH]c1 [Example 8, trichloro(imidazole)gold(III)] | 5 | 0 of 6 | -7 | 0 of 6 | 1 | 1 of 6 | -16 | 0 of 6 | 37 | 1 of 6 | 37 | 2 of 6 | considered to be inactive | – | – | – | – | – | – | Anti-tumor activity (in words) ([1]; S 180 ascites, listed as trichloro(imidazole)gold(III)): inactive in bringing about a regression of S 180 ascites at all doses tested; % ILS against criterion for anti-tumor activity ([1]; failed to meet the 50% ILS criterion): < 50% |
| Oc1ccc[n+]([Au-]([Cl])([Cl])[Cl])c1 [Example 5] | – | – | 9 | 0 of 6 | 39 | 2 of 6 | 61 | 3 of 6 | 30 | 2 of 6 | -36 | 0 of 6 | – | – | 61 | 87 | -85 | 0 of 6 | – | – |
| O=C(O)c1ccc[n+]([Au-]([Br])([Br])[Br])c1 [Example 10] | – | – | -23 | 0 of 6 | 26 | 0 of 6 | 64 | 2 of 6 | 49 | 0 of 6 | -19 | 0 of 6 | – | – | – | – | -95 | 0 of 6 | 12.8 | – |
| cis-[Pt(NH3)2 Cl2 ] [Cisplatin, reference compound] | – | – | – | – | – | – | – | – | – | – | – | – | – | – | – | – | – | – | – | Positive Control Survivors ([1]; S 180 ascites, Cisplatin in saline, 8 mg/kg, one value per test series, listed as Positive Control): 0 of 6 and 4 of 6 and 6 of 6 and 1 of 6; Therapeutic index attributed to commercially available Cisplatin [4]: 2.2-2.5 |
| O=C(O)Cc1ccc[n+]([Au-]([Cl])([Cl])[Cl])c1 [Example 4, trichloro(3-pyridyacetic acid)gold(III)] | – | – | 6 | 0 of 6 | -15 | 0 of 6 | 63 | 1 of 6 | 57 | 1 of 6 | -41 | 0 of 6 | pronounced antitumor effect | 1.8 | 63 | 84 | -90 | 0 of 6 | 12.8 | – |
